IC50 data for 37 molecules are collected here from patent US6881741B2 (ViroChem Pharma Inc., priority 2001, dated 2005).

pIC50: −log10 of the molar value. Where a name gives a salt, the structure may show the parent alone.

The target of the first assay is recombinant HCV NS5B (HCV RNA-dependent RNA polymerase) (Hepatitis C virus genotype 1b, UniProt P26663). Nature of the assay: biochemical. The settings on record: HCV polymerase activity, list of compounds of Example 27; read-out: IC50 (polymerase activity).
Sequence of recombinant HCV NS5B (HCV RNA-dependent RNA polymerase) (P26663 2420-3010 limits assumed): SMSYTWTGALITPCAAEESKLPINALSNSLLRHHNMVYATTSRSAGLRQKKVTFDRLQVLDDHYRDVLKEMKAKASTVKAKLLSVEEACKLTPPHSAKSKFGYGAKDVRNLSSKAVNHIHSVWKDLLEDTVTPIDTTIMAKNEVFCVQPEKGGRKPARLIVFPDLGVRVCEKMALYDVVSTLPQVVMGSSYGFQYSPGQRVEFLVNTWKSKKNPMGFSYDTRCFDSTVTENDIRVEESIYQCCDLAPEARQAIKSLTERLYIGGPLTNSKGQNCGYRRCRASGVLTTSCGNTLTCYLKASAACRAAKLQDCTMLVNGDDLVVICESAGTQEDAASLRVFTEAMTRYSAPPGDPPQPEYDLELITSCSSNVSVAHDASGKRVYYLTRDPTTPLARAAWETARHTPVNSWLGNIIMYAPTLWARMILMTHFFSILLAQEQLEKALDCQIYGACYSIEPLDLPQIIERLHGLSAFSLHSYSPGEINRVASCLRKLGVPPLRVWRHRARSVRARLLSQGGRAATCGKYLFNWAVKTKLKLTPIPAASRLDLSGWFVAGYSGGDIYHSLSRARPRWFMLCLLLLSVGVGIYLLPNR
A word on the pIC50: it is the negative decadic logarithm of the IC50, by convention in mol/L. As for `CC1CCC(C(=O)N(c2cc(C3=CCN(C(=O)OCc4ccccc4)CC3)sc2C(=O)O)C(C)C)CC1` (stereo not shown) [Compound 524, 4-{5-CARBOXY-4-[ISOPROPYL-(4- METHYL-CYCLOHEXANECARBONYL)- AMINO]-THIOPHEN-2-YL}-3,6-DIHYDRO- 2#H!-PYRIDINE-1-CARBOXYLIC ACID BENZYL ESTER], the pIC50 is above 5.30.
Regarding `CC(c1ccccc1)N(C(=O)c1ccc(Cl)cc1Cl)c1cc(-c2ccccc2)sc1C(=O)O` (stereo not shown) [Compound 403, 3-[(2,4-DICHLORO-BENZOYL)-(1-PHENYL- ETHYL)-AMINO]-5-PHENYL-THIOPHENE- 2-CARBOXYLIC ACID], the pIC50 was above 5.30.
Turning to `CN(C(=O)C1CCCCC1)c1cc(-c2ccccc2)sc1C(=O)O` [Compound 498, 3-(CYCLOHEXANECARBONYL-METHYL- AMINO)-5-PHENYL-THIOPHENE-2- CARBOXYLIC ACID], the pIC50 was above 5.30.
Still for that read-out and setting: the same measure for `CC1CCC(C(=O)N(c2cc(-c3ccccc3)sc2C(=O)O)C(C)C)C(=O)C1` (stereo not shown) [Compound 513, 3-[ISOPROPYL-(4-METHYL-2-OXO- CYCLOHEXANECARBONYL)-AMINO]-5- PHENYL-THIOPHENE-2-CARBOXYLIC ACID]: above 5.30; for `O=C(O)c1sc(-c2ccccc2)cc1N(Cc1ccc(F)cc1F)C(=O)C1CCCCC1` [Compound 490, 3-[CYCLOHEXANECARBONYL-(2,4- DIFLUORO-BENZYL)-AMINO]-5-PHENYL- THIOPHENE-2-CARBOXYLIC ACID]: above 5.30.
The same measure, in the same setting: the same measure for `CC1CCC(C(=O)N(c2cc(-c3ccccc3)sc2C(=O)O)C2CCOCC2)CC1` (stereo not shown) [Compound 572, 3-[(4-METHYL- CYCLOHEXANECARBONYL)- (TETRAHYDRO-PYRAN-4-YL)-AMINO]-5- PHENYL-THIOPHENE-2-CARBOXYLIC ACID]: above 5.30; for `CC(C)N(C(=O)c1cc(-c2ccccc2)sc1C(=O)O)c1ccc(Cl)cc1Cl` [Compound 583, 3-[(2,4-DICHLORO-PHENYL)-ISOPROPYL- CARBAMOYL]-5-PHENYL-THIOPHENE-2- CARBOXYLIC ACID]: above 5.30.
On the same count and under the same terms, with `CCC(=O)N(Cc1ccccc1)c1cc(-c2ccccc2)sc1C(=O)O` [Compound 451, 3-(BENZYL-PROPIONYL-AMINO)-5- PHENYL-THIOPHENE-2-CARBOXYLIC ACID] the figure was above 5.30; with `Cc1ccc(CN(C(=O)C2CCC2)c2cc(-c3ccccc3)sc2C(=O)O)cc1` [Compound 435, 3-[CYCLOBUTANECARBONYL-(4- METHYL-BENZYL)-AMINO]-5-PHENYL- THIOPHENE-2-CARBOXYLIC ACID], above 5.30.
For `CC1CCC(C(=O)N(c2cc(-c3ccc(F)cc3)sc2C(=O)O)C(C)C)CC1` (stereo not shown) [Compound 559, 5-(4-FLUORO-PHENYL)-3-[ISOPROPYL-(4- METHYL-CYCLOHEXANECARBONYL)- AMINO]-THIOPHENE-2-CARBOXYLIC ACID], the pIC50 was above 5.30.
Same read-out and setting: the same measure for `Cc1ccc(C(=O)N(c2cc(-c3ccccc3)sc2C(=O)O)C(C)C)c(C#N)c1` [Compound 431, 3-[(2-CYANO-4-METHYL-BENZOYL)- ISOPROPYL-AMINO]-5-PHENYL- THIOPHENE-2-CARBOXYLIC ACID]: 4.70 to 5.30.

Staying with this assay, now noted: related polymerase activity (Example 27 list); read-out: IC50.
For the molecule `Cc1ccccc1S(=O)(=O)Nc1cc(-c2ccc(F)c(Cl)c2)sc1C(=O)O` [Compound 91, 5-(3-CHLORO-4-FLUORO-PHENYL)-3-(TOLUENE-2-SULFONYLAMINO)-THIOPHENE-2-CARBOXYLIC ACID], the pIC50 is 4.70 to 5.30.
The same measure, in the same setting: the same measure for `O=C(O)c1sc(-c2ccccc2)cc1NS(=O)(=O)c1ccc(Br)cc1` [Compound 39, 3-(4-BROMO-BENZENESULFONYLAMINO)-5-PHENYL-THIOPHENE-2-CARBOXYLIC ACID]: above 5.30; for `O=C(O)c1sc(-c2ccccc2)cc1NS(=O)(=O)c1ccc(Cl)c(Cl)c1Cl` [Compound 153, 5-PHENYL-3-(2,3,4-TRICHLORO-BENZENESULFONYLAMINO)-THIOPHENE-2-CARBOXYLIC ACID]: above 5.30; for `COC(=O)c1sc(-c2ccccc2)cc1NC(=O)c1ccccc1C(=O)O` [Compound 51, 3-(2-CARBOXY-BENZOYLAMINO)-5-PHENYL-THIOPHENE-2-CARBOXYLIC ACID METHYL ESTER]: 4.70 to 5.30.
Regarding `CC(C)N(C(=O)c1ccc(Cl)cc1Cl)c1cc(-c2ccc(S(C)(=O)=O)cc2)sc1C(=O)O` [Compound 373, 3-[(2,4-DICHLORO-BENZOYL)- ISOPROPYL-AMINO]-5-(4- METHANESULFONYL-PHENYL)- THIOPHENE-2-CARBOXYLIC ACID], the pIC50 is above 5.30.
Still for that read-out and setting: with `CC(C)N(C(=O)c1cc(F)c(Cl)cc1F)c1cc(-c2ccccc2)sc1C(=O)O` [Compound 337, 3-[(4-CHLORO-2,5-DIFLUORO-BENZOYL)- ISOPROPYL-AMINO]-5-PHENYL- THIOPHENE-2-CARBOXYLIC ACID] the figure was 4.70 to 5.30; with `Cc1ccc(C(=O)N(C)c2cc(-c3ccc(F)cc3F)sc2C(=O)O)cc1` [Compound 214, 5-(2,4-DIFLUORO-PHENYL)-3-[METHYL-(4-METHYL-BENZOYL)-AMINO]-THIOPHENE-2-CARBOXYLIC ACID], 4.70 to 5.30.
As to `Cc1cc(Cl)ccc1C(=O)N(c1cc(-c2ccccc2)sc1C(=O)O)C(C)C` [Compound 234, 3-[(4-CHLORO-2-METHYL-BENZOYL)-ISOPROPYL-AMINO]-5-PHENYL-THIOPHENE-2-CARBOXYLIC ACID], the pIC50 is above 5.30.
Consider `O=C(O)c1sc(-c2ccc([N+](=O)[O-])cc2)cc1NS(=O)(=O)c1ccc(F)cc1F` [Compound 109, 3-(2,4-DIFLUORO-BENZENESULFONYLAMINO)-5-(4-NITRO-PHENYL)-THIOPHENE-2-CARBOXYLIC ACID], for which the pIC50 was above 5.30.
As to `Cc1cccc(C)c1N1CCN(C(=O)Nc2cc(-c3ccccc3)sc2C(=O)O)CC1` [Compound 158, 3-{[4-(2,6-DIMETHYL-PHENYL)-PIPERAZINE-1-CARBONYL]-AMINO}-5-PHENYL-THIOPHENE-2-CARBOXYLIC ACID], the pIC50 was below 4.70.
On the same count and under the same terms, the same measure for `Cc1ccccc1S(=O)(=O)Nc1cc(/C=C/c2ccccc2)sc1C(=O)O` [Compound 108, 5-STYRYL-3-(TOLUENE-2-SULFONYLAMINO)-THIOPHENE-2-CARBOXYLIC ACID]: above 5.30; for `Cc1ccccc1S(=O)(=O)Nc1cc(-c2cccc(N)c2)sc1C(=O)O` [Compound 164, 5-(3-AMINO-PHENYL)-3-(TOLUENE-2-SULFONYLAMINO)-THIOPHENE-2-CARBOXYLIC ACID]: 4.70 to 5.30.
In the case of `Cc1ccc(-c2cc(NS(=O)(=O)c3cc(C)ccc3C)c(C(=O)O)s2)cc1` [Compound 118, 3-(2,5-DIMETHYL-BENZENESULFONYLAMINO)-5-P-TOLYL-THIOPHENE-2-CARBOXYLIC ACID], the pIC50 was above 5.30.
Still for that read-out and setting: with `Cc1ccccc1S(=O)(=O)Nc1cc(-c2ccc(S(C)(=O)=O)cc2)sc1C(=O)O` [Compound 89, 5-(4-METHANESULFONYL-PHENYL)-3-(TOLUENE-2-SULFONYLAMINO)-THIOPHENE-2-CARBOXYLIC ACID] the figure was above 5.30; with `CCOC(=O)c1c(C)oc(-c2ccc(Cl)cc2)c1S(=O)(=O)Nc1cc(-c2ccccc2)sc1C(=O)O` [Compound 144, 4-(2-CARBOXY-5-PHENYL-THIOPHEN-3-YLSULFAMOYL)-5-(4-CHLORO-PHENYL)-2-METHYL-FURAN-3-CARBOXYLIC ACID ETHYL ESTER], 4.70 to 5.30; with `Cc1c(S(=O)(=O)Nc2cc(-c3ccccc3)sc2C(=O)O)sc2ccc(Cl)cc12` [Compound 38, 3-(5-CHLORO-3-METHYL-BENZO[ B ]THIOPHENE-2-SULFONYLAMINO)-5-PHENYL-THIOPHENE-2-CARBOXYLIC ACID], above 5.30.
Same read-out and setting: the same measure for `C=CCN(C(=O)Cc1ccc(Cl)c(Cl)c1)c1cc(-c2ccccc2)sc1C(=O)O` [Compound 350, 3-{ALLYL-[2-(3,4-DICHLORO-PHENYL)- ACETYL]-AMINO}-5-PHENYL-THIOPHENE- 2-CARBOXYLIC ACID]: 4.70 to 5.30; for `O=C(O)c1sc(-c2ccccc2)cc1NC(=O)N1CCN(Cc2ccc(Cl)cc2)CC1` [Compound 183, 3-{[4-(4-CHLORO-BENZYL)-PIPERAZINE-1-CARBONYL]-AMINO}-5-PHENYL-THIOPHENE-2-CARBOXYLIC ACID HYDROCHLORIDE]: 4.70 to 5.30.
On the same count and under the same terms, the same measure for `C=CCN(C(=O)Cc1ccc(Cl)cc1Cl)c1cc(-c2ccccc2)sc1C(=O)O` [Compound 348, 3-{ALLYL-[2-(2,4-DICHLORO-PHENYL)- ACETYL]-AMINO}-5-PHENYL-THIOPHENE- 2-CARBOXYLIC ACID]: 4.70 to 5.30.
Take `Cc1ccc(C(=O)N(C)c2cc(-c3ccccc3)sc2C(=O)O)cc1[N+](=O)[O-]` [Compound 257, 3-[METHYL-(4-METHYL-3-NITRO-BENZOYL)-AMINO]-5-PHENYL-THIOPHENE-2-CARBOXYLIC ACID]: the pIC50 was 4.70 to 5.30.
Turning to `CC(c1ccccc1)N(C(=O)c1ccc(Cl)cc1Cl)c1cc(-c2ccccc2)sc1C(=O)O` (stereo not shown) [Compound 264, 3-[(2,4-DICHLORO-BENZOYL)-(1-PHENYL-ETHYL)-AMINO]-5-PHENYL-THIOPHENE-2-CARBOXYLIC ACID], the pIC50 was above 5.30.
Take `Cc1ccccc1S(=O)(=O)Nc1cc(-c2sccc2C)sc1C(=O)O` [Compound 105, 3′-METHYL-4-(TOLUENE-2-SULFONYLAMINO)-[2,2′]BITHIOPHENYL-5-CARBOXYLIC ACID]: the pIC50 is 4.70 to 5.30.
In the case of `Cc1ccccc1S(=O)(=O)Nc1cc(-c2ccccc2C#N)sc1C(=O)O` [Compound 102, 5-(2-CYANO-PHENYL)-3-(TOLUENE-2-SULFONYLAMINO)-THIOPHENE-2-CARBOXYLIC ACID], the pIC50 was 4.70 to 5.30.
On to `Cc1ccc(C(=O)N(c2cc(-c3cccc(C)c3)sc2C(=O)O)C(C)C)cc1` [Compound 305, 3-[ISOPROPYL-(4-METHYL-BENZOYL)- AMINO]-5-M-TOLYL-THIOPHENE-2- CARBOXYLIC ACID], for which the pIC50 is above 5.30.
For `CCCCc1ccc(-c2cc(NS(=O)(=O)c3ccccc3C)c(C(=O)O)s2)cc1` [Compound 231, 5-(4-BUTYL-PHENYL)-3-(TOLUENE-2-SULFONYLAMINO)-THIOPHENE-2-CARBOXYLIC ACID], the pIC50 was above 5.30.
The same measure, in the same setting: with `CC(=O)c1ccc(-c2cc(NS(=O)(=O)c3ccc(Cl)cc3)c(C(=O)O)s2)cc1` [Compound 238, 5-(4-ACETYL-PHENYL)-3-(4-CHLORO-BENZENESULFONYLAMINO)-THIOPHENE-2-CARBOXYLIC ACID] the figure was above 5.30.
